According to patent US10226449B2, “Heterocyclic modulators of lipid synthesis and combinations thereof” (priority 2013, dated 2019):
Read-outs that look alike come from different tables or passages of the source.

Assays:
HCV1b replicon = HCV1b replicon antiviral assay (luciferase reporter); assay type: cell-based; details: Hepatitis C virus; HCV genotype 1b replicon; read-out: HCV GT1b EC50
Method: The antiviral activities of the compounds were assessed using the HCV1b replicon system. […] HCV RNA replicon levels were assessed using the Bright-Glo™ Luciferase Assay System (Promega) to measure replicon-derived Luc activity.

[1] = Tolerability in the single agent PANC-1 xenograft study; details: 30/20 mg/kg Q5d; 18-day study; PANC-1 xenograft mice, 10 per group
Method: (§1) The day of tumor cell inoculation is denoted as day 0. Drug treatment was initiated when the mean tumor size reached 149 mm^3 (day 15). […] Mice were assigned into treatment groups using a randomized block design based upon their tumor volumes. […] Tumor sizes were measured twice weekly in two dimensions using a caliper, and the volumes were expressed in mm^3 using the formula: V=0.5 a×b2 where a and b were the long and short diameters of the tumor, respectively. The study was terminated 6 hours post the 18th Qd dose on day 32 after tumor inoculation. Tumor growth inhibition (TGI) was calculated as the percentage of tumor growth, relative to tumor size at the start of treatment, in drug-treated groups compared to vehicle-treated groups. The Mann-Whitney U test was used to assess statistical significance of the mean tumor size between drug and vehicle-treated groups.

[2] = mouse, in vivo
Method: as §1

CALU-6 xenograft tumors = test: CALU-6 lung xenograft tumor growth inhibition with paclitaxel; assay type: in vivo, BALB/c-nude mice; details: for TGI vs. Vehicle: day 21 post treatment start
Method: (§2) The day of tumor cell inoculation is denoted as day 0. After inoculation, the animals were checked daily for morbidity and mortality. At the time of routine monitoring, the animals were checked for any effects of tumor growth and treatments on normal behavior such as mobility, visual estimation of food and water consumption, body weight gain/loss (body weights were measured twice weekly), eye/hair matting and any other abnormal signs. […] Mice were assigned into treatment groups using a randomized block design based upon their tumor volumes. […] Tumor sizes were measured twice weekly in two dimensions using a caliper, and the volumes were expressed in mm^3 using the formula: V=0.5*(a*b^2) where a and b were the long and short diameters of the tumor, respectively. The study was terminated 6 hours post the last dose 17-28 days after treatment initiation. Tumor growth inhibition (TGI) was calculated as the percentage of tumor growth, relative to tumor size at the start of treatment, in drug-treated groups compared to vehicle-treated groups. The Mann-Whitney U test was used to assess statistical significance of the mean tumor size between drug and vehicle-treated groups
The study was terminated 21 days after initiation of treatment.

OVCAR-8 xenograft tumors = test: OVCAR-8 ovarian xenograft tumor growth inhibition with paclitaxel; assay type: in vivo, BALB/c-nude mice; details: day 21 post treatment start
Method: as §2
The study was terminated 28 days after initiation of treatment.

[3] = mouse, in vivo; remark: listed apart in the source
Method: as §2

[4] = mouse, in vivo; remark: listed apart in the source
Method: as §2

[5] = system: COLO-205 xenograft tumors; test: COLO-205 colon xenograft tumor growth inhibition with irinotecan
Method: as §2

PANC-1 xenograft tumors = test: PANC-1 pancreatic xenograft tumor growth inhibition with gemcitabine; assay type: in vivo, BALB/c-nude mice
Method: as §2

[6] = mouse, in vivo; remark: listed apart in the source
Method: as §2

[7] = irinotecan 10 mg/kg ip Q4d, single agent

Cc1cc(C)c(-c2[nH]c(C3CCOCC3)nc2C)cc1C(=O)N1CC(F)(c2ccc(C#N)cc2)C1 [Compound 167, 4-(1-(2,4-Dimethyl-5-(4-methyl-2-(tetrahydro-2H-pyran-4-yl)-1H-imidazol-5-yl)benzoyl)-3-fluoroazetidin-3-yl)benzonitrile]
EC50 (HCV1b replicon): 25 nM

C=C1C(=O)O[C@@H](CCCCCCCC)[C@@H]1C(=O)O (relative stereo) [Compound C75, trans-4-methylene-2-octyl-5-oxotetrahydrofuran-3-carboxylic acid]
mice died from drug-related toxicity [1]: Six of the ten mice in the C75 treatment group died | tolerability in PANC-1 xenograft tumor-bearing mice [2]: drug-induced weight loss and toxicity

CC(=O)O[C@H]1C(=O)[C@@]2(C)[C@H]([C@H](OC(=O)c3ccccc3)[C@]3(O)C[C@H](OC(=O)[C@H](O)[C@@H](NC(=O)c4ccccc4)c4ccccc4)C(C)=C1C3(C)C)[C@]1(OC(C)=O)CO[C@@H]1C[C@@H]2O [Paclitaxel, paclitaxel, reference compound]
TGI vs. Vehicle (CALU-6 xenograft tumors; paclitaxel 10 mg/kg ip Q4d): 63% | TGI vs. Vehicle (OVCAR-8 xenograft tumors; paclitaxel 10 mg/kg ip Q4d): 83%

Cc1cc(C)c(-c2[nH]nc(C)c2C)cc1C(=O)N1CC(c2ccc(C#N)cc2)C1 [Compound 242, 4-(1-(5-(3,4-Dimethyl-1H-pyrazol-5-yl)-2,4-dimethylbenzoyl)azetidin-3-yl)benzonitrile]
tolerability in OVCAR-8 xenograft tumor-bearing mice [3]: well tolerated as a single or combination agent | Body Weight Change (mouse, in vivo, po, 100 mg/kg): −12.0% | tolerability in PANC-1 xenograft tumor-bearing mice [4]: well tolerated as a single or combination agent | TGI vs. Vehicle ([5]; Compound 242 30 mg/kg po Qd for 20 days): 6% | TGI vs. Vehicle (PANC-1 xenograft tumors; Compound 242 30 mg/kg po Qd for 18 days): 9% | tolerability in CALU-6 xenograft tumor-bearing mice [6]: well tolerated as a single or combination agent | TGI vs. Vehicle (CALU-6 xenograft tumors; Compound 242 60 mg/kg po Qd): 14% | TGI vs. Vehicle (CALU-6 xenograft tumors; Compound 242 100 mg/kg po Qd): 0% | tumor growth inhibition, range over dose groups (CALU-6 xenograft tumors; Compound 242 single agent at 30, 60, or 100 mg/kg once daily for 21 days): 0-19% | TGI vs. Vehicle (OVCAR-8 xenograft tumors; Compound 242 30 mg/kg po Qd): 46% | TGI vs. Vehicle (OVCAR-8 xenograft tumors; Compound 242 100 mg/kg po Qd): 74%

Nc1ccn([C@@H]2O[C@H](CO)[C@@H](O)C2(F)F)c(=O)n1 [Gemcitabine, gemcitabine, reference compound]
TGI vs. Vehicle (PANC-1 xenograft tumors; gemcitabine 10 mg/kg ip, single agent): 31%

Cc1ccc(C(=O)N2CCC(c3ccc(C#N)cc3)CC2)cc1-c1[nH]nc(Cl)c1C [Compound 253, 4-(1-(3-(3-Chloro-4-methyl-1H-pyrazol-5-yl)-4-methylbenzoyl)piperidin-4-yl)benzonitrile]
EC50 (HCV1b replicon): 220 nM

CCN(CC)c1cc(C)c(C(=O)N2CCC(c3ccc(C#N)cc3)CC2)cc1-c1nnc(C)[nH]1 [Compound 129, 4-(1-(4-(diethylamino)-2-methyl-5-(5-methyl-4H-1,2,4-triazol-3-yl)benzoyl)piperidin-4-yl)benzonitrile]
EC50 (HCV1b replicon): 2150 nM

CCc1c2c(nc3ccc(OC(=O)N4CCC(N5CCCCC5)CC4)cc13)-c1cc3c(c(=O)n1C2)COC(=O)[C@]3(O)CC [Irinotecan, irinotecan, reference compound]
Body Weight Change [7]: −10.2% | body weight loss (single agent irinotecan group, 10 mg/kg Q4d): 10.2% | TGI vs. Vehicle [5, 7]: 57%
